Measured values: US12589103B2, “Antimicrobial and antiviral effects of C2-C7 alkyl boronic acids” (CORNELL UNIVERSITY, priority 2019, dated 2026)
Entries after “also recorded” stand apart in the source; their conditions may differ.

Columns and labels:
[1] = molecular target: T1, 3CL protease of the FIP virus (Feline coronavirus, UniProt Q98VG9); conditions: cited from earlier work
T1 construct: 3CL protease of the FIP virus

FIPV = conditions: known drugs; cited from earlier work
[2] = system: probiotic Lactobacillus spp; test: Growth of probiotic Lactobacillus strains; conditions: three Lactobacillus strains
nF-κB = test: E. coli induced nF-κB activation in HEK-Blue KD-TLR5 cells (SEAP reporter); type: cell-based; conditions: m.o.i 20, SEAP at 24 h
Procedure: HEK-Blue KD-TLR5 cells were used to detect the promotor activation of nF-κB by E. coli infection with or without boric or boronic acid treatment. nF-κB is the prototypical transcription factor for pro-inflammatory cytokines in epithelium. Briefly, cells were seeded in 96-well plates at a density of 5×10^4 cells per well. E. coli was diluted into fresh cell medium containing either NaCl (Control), boric or boronic acid at an m.o.i of 200 as 10× inocula, followed by addition of this inoculum (10 μl) into each well containing 100 μl of medium for a final m.o.i of 20. At 3 h post infection, the cell medium was carefully removed from each well, and replaced with 100 μl of fresh medium containing gentamycin (200 μg mL^−1). At 24 h post infection, the spent medium was collected, and centrifuged at 12,000 r.p.m. for 5 min to remove any particulate matter. QUANTI-Blue Kit (InvivoGen, San Diego, CA, USA) was used to detect the reporter protein SEAP (secreted alkaline phosphatase) following the manufacturer's instructions.

Salmonella [3] = test: Soft agar motility assay, Salmonella; type: cell-based; conditions: % motility of the control
Procedure: (§1) The ability of ABA C1-3 and BA to impact the motility of E. coli and Salmonella was evaluated using sloppy agar treated with and without BA and C1-C3 alkyl boronic acids. Motility is strongly linked to the virulence phenotype of these bacterial strains. E. coli was grown overnight at 37° C. in LB broth. Soft agar plates (1% tryptone, 0.5% NaCl, 0.25% agar) were prepared the day before the assay was carried out. Sterile NaCl (control), boric or boronic acid stock solution was added into the agar right before pouring the plates. The overnight cultures of E. coli were transferred (3 μl) on to the center of each plate, followed by incubation of the plates at 37° C. for 10 h. E. coli motility was quantified by measuring the diameter of the circular swarming area formed by the growing motile bacteria.

[4] = system: AIEC and cancer associated E. coli; test: Soft agar motility assay, E. coli; type: cell-based; conditions: 10 h, AIEC NC101, 541-1, cancer associated E. coli
Procedure: as §1

Salmonella [5] = test: Growth of five Salmonella strains; type: cell-based
Procedure: (§2) The control sample contained 40 mM NaCl.

[6] = system: diarrheagenic E. coli and APEC; test: Growth of diarrheagenic and APEC E. coli in LB media; type: cell-based; conditions: 30 mM
Procedure: as §2
Diarrheagenic E. coli pathogroups differ by their preferential host colonization sites, virulence mechanisms, and clinical symptoms.

[7] = system: typhoid toxin B subunit (CdtB); type: cell-based, Salmonella typhi
[8] = system: AIEC in murine macrophage J774A.1 cells; test: Uptake and survival of AIEC in J774A.1 macrophages; type: cell-based, E. coli
[9] = system: AIEC E. coli from dogs (MDR and non-MDR strains); test: Growth of MDR and non-MDR E. coli associated with Granulomatous colitis in dogs; type: cell-based; conditions: 40 mM, LB broth, 48 hrs
Procedure: (§3) The ability of C1-C3 alkyl boronic acids and BA to impact the growth of MDR E. coli isolated from people and dogs was evaluated using a temperature controlled 96-well multiplate incubator at 37° C. over 48 hrs. Growth in media (LB broth) with and without ABA C2-6 (40 mM) was monitored by readings at OD600 with the AUC of the growth curve calculated.
Non-MDR strains KD1, KD2, and KD3 were also evaluated.

[10] = system: Feline Infectious Peritonitis Virus (FIPV) Black (TN-406); test: FIPV replication and syncytium formation, immunofluorescence; type: cell-based, Feline Coronavirus type I; conditions: 10, 20, 30, 40 mM; Feline Lung cells, 18 h post-infection
[11] = system: AIEC E. coli isolated from people (MDR and non-MDR strains); test: Growth of MDR and non-MDR E. coli associated with Crohn's disease; type: cell-based; conditions: 40 mM, LB broth, 48 hrs
Procedure: as §3

AIEC 541-1 and LF82 = test: Adhesion and invasion of Caco-2 cells by AIEC; type: cell-based, E. coli; conditions: 30 mM, m.o.i 10, 3 h
Procedure: E. coli was cultured overnight in LB at 37° C. with shaking. Bacterial pellets were re-suspended in PBS before dilution in cell culture media±30 mM boronic acid or alkyl boronic acid to an m.o.i (multiplicity of infection) of 10. Caco-2 cells were infected with the diluted E. coli for 3 h at 37° C. before washing with PBS, then lysed with 1% Triton X-100. Serial dilutions of the lysates were made in PBS and plated on LB agar. The total number of colonies recovered was used to calculate the number of adherent bacteria. For invasion assays, cells were treated with gentamicin (100 μg mL−1) for one hour after initial infection and 3× wash with PBS to kill extracellular bacteria. Cells were then washed 3× after gentamicin treatment, lysed and plated as described above.

T1 sequence (Q98VG9 2904-3205): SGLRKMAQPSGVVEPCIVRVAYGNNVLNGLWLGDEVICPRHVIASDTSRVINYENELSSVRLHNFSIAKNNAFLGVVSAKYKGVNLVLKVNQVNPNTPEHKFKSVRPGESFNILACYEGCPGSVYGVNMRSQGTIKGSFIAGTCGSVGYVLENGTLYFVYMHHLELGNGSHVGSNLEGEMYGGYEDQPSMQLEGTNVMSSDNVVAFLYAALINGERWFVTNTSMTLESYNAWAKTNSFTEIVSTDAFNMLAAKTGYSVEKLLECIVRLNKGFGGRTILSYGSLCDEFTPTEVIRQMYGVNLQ

| Compound | inhibition of FIP virus 3CL protease [1] | efficacy against FIPV (FIPV) | growth of probiotic Lactobacillus spp [2] | induction of nF-κB by E. coli (nF-κB) | degree of cytopathic effect (Caco-2 cells) | motility of Salmonella (Salmonella [3]) | motility of E. coli [4] | inhibition of growth of Salmonella serovars (Salmonella [5]) | inhibition of growth of diarrheagenic and APEC E. coli [6] | typhoid toxin (CdtB) production [7] | cytotoxicity in antiviral assay (Feline Lung cells) | survival of AIEC in J774A.1 macrophages ([8]; 30 mM during infection, 24 h post infection) | uptake of AIEC by J774A.1 macrophages ([8]; 30 mM, 1 h) | growth inhibition of canine Granulomatous colitis associated AIEC, MDR and non-MDR [9] | replication and syncytium formation of FIPV [10] | growth inhibition of Crohn's disease associated AIEC, MDR and non-MDR [11] | adhesion and invasion of Caco-2 by AIEC (AIEC 541-1 and LF82) |
| --- | --- | --- | --- | --- | --- | --- | --- | --- | --- | --- | --- | --- | --- | --- | --- | --- | --- |
| CC(C)C[C@H](NC(=O)OCc1ccccc1)C(=O)N[C@@H](C[C@@H]1CCNC1=O)C(O)S(=O)(=O)[O-].[Na+] (some centres unmarked) [GC376] | inhibited | some efficacy against FIPV | – | – | – | – | – | – | – | – | – | – | – | – | – | – | – |
| CCCB(O)O [PBA] | – | – | do not suppress growth | reduced the induction of nF-κB by E. coli | EBA<BA<PBA | highly effective at blocking motility of Salmonella | highly effective at blocking motility of AIEC and cancer associated E. coli | inhibit the growth of multiple serovars of Salmonella more effectively than BA | have activity versus the diarrheagenic E. coli and APEC that varies by pathogroup; also recorded: more effective in inhibiting bacterial growth than BA overall | inhibition of toxin production (CdtB) | Cytotoxicity was not observed at antiviral doses | inhibited the survival | inhibited the uptake | more effective than BA over a wider range of AIEC, including MDR and non-MDR strains | inhibited replication and syncytium formation of FIPV in infected cells | more effective than BA over a wider range of AIEC, including MDR and non-MDR strains | suppress adhesion and invasion of Caco-2 by AIEC 541-1 and LF82 |
